Where two headings read alike, the source gives them in different places.
Columns and labels:
[1] = system: murine leukemia (L1210) cells; test: Cytostatic activity, L1210 cell proliferation; type: cell-based; conditions: Mus musculus, read-out: IC50 L1210
Method: (§1) All assays were performed in 96-well microtiter plates. To each well were added (5–7.5) × 10^4 tumor cells and a given amount of the test compound. The cells were allowed to proliferate for 48 h (murine leukemia L1210 cells) or 72 h (human lymphocytic CEM and human cervix carcinoma HeLa cells) at 37 °C in a humidified CO2-controlled atmosphere. At the end of the incubation period, the cells were counted in a Coulter counter.

[2] = system: human T-lymphocyte (CEM) cells; test: Cytostatic activity, CEM cell proliferation; type: cell-based; conditions: CCRF-CEM, 72 h, read-out: IC50 CEM
Method: as §1

[3] = system: human cervix carcinoma cells (HeLa); test: Cytostatic activity, HeLa cell proliferation; type: cell-based; conditions: 72 h, read-out: IC50 HeLa
Method: as §1

[4] = system: human dermal microvascular endothelial HMEC-1 cells; test: Cytostatic activity, HMEC-1 cell proliferation; type: cell-based

Row | IC50 ([1]; L1210, cell proliferation, 48 h) | IC50 ([3]; cell proliferation) | SMILES | IC50 ([2]; cell proliferation) | IC50 ([4]; HMEC-1, cell proliferation, read-out: IC50 HMEC-1) | melting point | IC50 ([1]; L1210, 48 h) | IC50 [2] | IC50 [3] | IC50 ([4]; HMEC-1, read-out: IC50 HMEC-1)
1 | > 250 µM | 48 ± 8 µM | C#CCN1C(=O)c2cccc3cccc(c23)C1=O [Compound 7, 2-(Prop-2-yn-1-yl)-1H-benzo[de]isoquinoline-1,3(2H)-dione] | 206 ± 42 µM | 138 ± 38 µM | 239 to 240 °C | – | – | – | –
2 | – | – | CCOP(=O)(Cn1cc(CN2C(=O)c3cccc4cccc(c34)C2=O)nn1)OCC [Compound 14a] | – | – | 110 to 111 °C | > 250 µM | 187 ± 25 µM | > 250 µM | > 250 µM
3 | – | – | CCOP(=O)(CCn1cc(CN2C(=O)c3cccc4cccc(c34)C2=O)nn1)OCC [Compound 14b, Diethyl 2-{4-[(1,3-Dioxo-1H-benzo[de]isoquinolin-2(3H)-yl)methyl]-1H-1,2,3-triazol-1-yl}ethylphosphonate] | – | – | 63 to 64 °C | > 250 µM | 148 ± 59 µM | 204 ± 65 µM | > 250 µM
4 | – | – | CCOP(=O)(CC(O)Cn1cc(CN2C(=O)c3cccc4cccc(c34)C2=O)nn1)OCC (centres unmarked) [Compound 14f, Diethyl 3-{4-[(1,3-Dioxo-1H-benzo[de]isoquinolin-2(3H)-yl)methyl]-1H-1,2,3-triazol-1-yl}-2-hydroxypropylphosphonate] | – | – | > 260 °C | > 250 µM | 158 ± 4 µM | 168 ± 26 µM | > 250 µM
5 | – | – | CCOP(=O)(COCCn1cc(CN2C(=O)c3cccc4cccc(c34)C2=O)nn1)OCC [Compound 14g, Diethyl 2-{4-[(1,3-Dioxo-1H-benzo[de]isoquinolin-2(3H)-yl)methyl]-1H-1,2,3-triazol-1-yl}ethoxy-methylphosphonate] | – | – | 154 to 155 °C | > 250 µM | 168 ± 29 µM | 215 ± 49 µM | ≥ 250 µM
6 | – | – | CCOP(=O)(CNC(=O)Cn1cc(CN2C(=O)c3cccc4cccc(c34)C2=O)nn1)OCC [Compound 14i, Diethyl 2-{4-[(1,3-Dioxo-1H-benzo[de]isoquinolin-2(3H)-yl)methyl]-1H-1,2,3-triazol-1-yl}acetamido-methylphosphonate] | – | – | 170 to 171 °C | > 250 µM | ≥ 250 µM | > 250 µM | > 250 µM
7 | – | – | CCOP(=O)(Cn1cc(CN2C(=O)c3cccc4c(Br)ccc(c34)C2=O)nn1)OCC [Compound 15a, Diethyl {4-[(6-Bromo-1,3-dioxo-1H-benzo[de]isoquinolin-2(3H)-yl)methyl]-1H-1,2,3-triazol-1-yl}methylphosphonate] | – | – | 158 to 159 °C | 28 ± 1 µM | 60 ± 27 µM | 88 ± 5 µM | 185 ± 40 µM
8 | – | – | CCOP(=O)(CCCn1cc(CN2C(=O)c3cccc4c(Br)ccc(c34)C2=O)nn1)OCC [Compound 15c, Diethyl 3-{4-[(6-Bromo-1,3-dioxo-1H-benzo[de]isoquinolin-2(3H)-yl)methyl]-1H-1,2,3-triazol-1-yl}propylphosphonate] | – | – | 118 to 120 °C | 20 ± 3 µM | 52 ± 34 µM | 62 ± 1 µM | 152 µM
9 | – | – | CCOP(=O)(OCC)C(O)Cn1cc(CN2C(=O)c3cccc4c(Br)ccc(c34)C2=O)nn1 (centres unmarked) [Compound 15e, Diethyl 2-{4-[(6-Bromo-1,3-dioxo-1H-benzo[de]isoquinolin-2(3H)-yl)methyl]-1H-1,2,3-triazol-1-yl}-1-hydroxyethylphosphonate] | – | – | 198 to 200 °C | 42 ± 15 µM | 196 ± 60 µM | > 250 µM | > 250 µM
10 | – | – | CCOP(=O)(COCCn1cc(CN2C(=O)c3cccc4c(Br)ccc(c34)C2=O)nn1)OCC [Compound 15g, Diethyl 2-{4-[(6-Bromo-1,3-dioxo-1H-benzo[de]isoquinolin-2(3H)-yl)methyl]-1H-1,2,3-triazol-1-yl}ethoxy-methylphosphonate] | – | – | – | 24 ± 3 µM | 66 ± 20 µM | 84 ± 16 µM | 152 ± 1 µM
11 | – | – | CCOP(=O)(Cn1cc(CN2C(=O)c3cccc4cc(N)cc(c34)C2=O)nn1)OCC [Compound 17a, Diethyl {4-[(5-Amino-1,3-dioxo-1H-benzo[de]isoquinolin-2(3H)-yl)methyl]-1H-1,2,3-triazol-1-yl}methylphosphonate] | – | – | – | 177 ± 76 µM | 214 ± 5 µM | 101 ± 78 µM | –
12 | – | – | CCOP(=O)(CCn1cc(CN2C(=O)c3cccc4cc(N)cc(c34)C2=O)nn1)OCC [Compound 17b, Diethyl 2-{4-[(5-Amino-1,3-dioxo-1H-benzo[de]isoquinolin-2(3H)-yl)methyl]-1H-1,2,3-triazol-1-yl}ethylphosphonate] | – | – | – | > 250 µM | 120 ± 7 µM | 69 ± 12 µM | –
13 | – | – | CCOP(=O)(CCCn1cc(CN2C(=O)c3cccc4cc(N)cc(c34)C2=O)nn1)OCC [Compound 17c, Diethyl 3-{4-[(5-Amino-1,3-dioxo-1H-benzo[de]isoquinolin-2(3H)-yl)methyl]-1H-1,2,3-triazol-1-yl}propylphosphonate] | – | – | 180 to 182 °C | > 250 µM | ≥ 250 µM | ≥ 250 µM | –
14 | – | – | CCOP(=O)(CCCCn1cc(CN2C(=O)c3cccc4cc(N)cc(c34)C2=O)nn1)OCC [Compound 17d, Diethyl 4-{4-[(5-Amino-1,3-dioxo-1H-benzo[de]isoquinolin-2(3H)-yl)methyl]-1H-1,2,3-triazol-1-yl}butylphosphonate] | – | – | 218 to 220 °C | > 250 µM | > 250 µM | 116 ± 60 µM | –
15 | – | – | CCOP(=O)(OCC)C(O)Cn1cc(CN2C(=O)c3cccc4cc(N)cc(c34)C2=O)nn1 (centres unmarked) [Compound 17e, Diethyl 2-{4-[(5-Amino-1,3-dioxo-1H-benzo[de]isoquinolin-2(3H)-yl)methyl]-1H-1,2,3-triazol-1-yl}-1-hydroxyethylphosphonate] | – | – | 170 to 172 °C | > 250 µM | > 250 µM | 72 ± 58 µM | –
16 | – | – | CCOP(=O)(CC(O)Cn1cc(CN2C(=O)c3cccc4cc(N)cc(c34)C2=O)nn1)OCC (centres unmarked) [Compound 17f, Diethyl 3-{4-[(5-Amino-1,3-dioxo-1H-benzo[de]isoquinolin-2(3H)-yl)methyl]-1H-1,2,3-triazol-1-yl}-2-hydroxypropylphosphonate] | – | – | 222 to 224 °C | > 250 µM | > 250 µM | 130 ± 77 µM | –
17 | – | – | CCOP(=O)(COCCn1cc(CN2C(=O)c3cccc4cc(N)cc(c34)C2=O)nn1)OCC [Compound 17g, Diethyl 2-{4-[(5-Amino-1,3-dioxo-1H-benzo[de]isoquinolin-2(3H)-yl)methyl]-1H-1,2,3-triazol-1-yl}ethoxy-methylphosphonate] | – | – | 221 to 223 °C | > 250 µM | > 250 µM | 97 ± 42 µM | –
18 | – | – | CCOP(=O)(CCOCCn1cc(CN2C(=O)c3cccc4cc(N)cc(c34)C2=O)nn1)OCC [Compound 17h, Diethyl 2-(2-{4-[(5-Amino-1,3-dioxo-1H-benzo[de]isoquinolin-2(3H)-yl)methyl]-1H-1,2,3-triazol-1-yl}ethoxy)ethylphosphonate] | – | – | 180 to 183 °C | 142 ± 2 µM | 109 ± 3 µM | 66 ± 3 µM | –
19 | – | – | CCOP(=O)(CNC(=O)Cn1cc(CN2C(=O)c3cccc4cc(N)cc(c34)C2=O)nn1)OCC [Compound 17i, Diethyl 2-{4-[(5-Amino-1,3-dioxo-1H-benzo[de]isoquinolin-2(3H)-yl)methyl]-1H-1,2,3-triazol-1-yl}acetamido-methylphosphonate] | – | – | 222 to 224 °C | > 250 µM | > 250 µM | 112 ± 58 µM | –

Reference: article PMC6273621, “Synthesis and the Biological Activity of Phosphonylated 1,2,3-Triazolenaphthalimide Conjugates” (Molecules, 2016)
